Experimental data: publication PMC13052863 (PLOS One, 2026)
Like-named read-outs stand apart in the source and are kept apart here.

How the values were obtained:
[1] = biological target: T1, D. melanogaster eIF4A wt (Drosophila melanogaster, UniProt Q02748); assay type: binding; conditions: S3 Table
T1 construct: made in house; host or cells: E. coli BL21 (DE3)

[2] = tested on: Ae. aegypti eIF4A mutant H161L; conditions: for reduction in thermal shift with the mutant compared to the wt protein: Ae. aegypti eIF4A, (GA)5 10mer; for ∆Tm: S3 Table, Ae. aegypti mut.
[3] = tested on: A. suspensa eIF4A mutant Y160L; conditions: S3 Table, A. suspensa mut.
[4] = biological target: T2, D. melanogaster eIF4A mutant Y160L (Drosophila melanogaster, UniProt Q02748, Y160L); assay type: binding; conditions: S3 Table, D. melanogaster mut.
T2 construct: made in house; host or cells: E. coli BL21 (DE3)
T2 sequence (Q02748 whole entry Y160L): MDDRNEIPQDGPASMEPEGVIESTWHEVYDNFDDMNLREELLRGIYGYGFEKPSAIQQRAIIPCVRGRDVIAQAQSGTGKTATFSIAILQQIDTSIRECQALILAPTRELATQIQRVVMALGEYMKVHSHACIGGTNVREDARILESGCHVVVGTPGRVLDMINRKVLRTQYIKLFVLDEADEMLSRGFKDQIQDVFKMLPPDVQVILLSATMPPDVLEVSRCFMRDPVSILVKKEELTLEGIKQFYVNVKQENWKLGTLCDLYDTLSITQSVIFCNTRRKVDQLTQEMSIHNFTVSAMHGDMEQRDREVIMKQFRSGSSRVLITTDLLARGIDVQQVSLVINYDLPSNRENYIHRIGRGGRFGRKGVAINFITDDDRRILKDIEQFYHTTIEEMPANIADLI

[5] = tested on: Aag2 cells; test: cells; conditions: Aedes aegypti, read-out: IC50 (best-fit value, 4PL dose-viability curve)
[6] = in vitro; conditions: Drosophila melanogaster, CC50, S2 cells, WST-1
[7] = tested on: A549 cells; conditions: 50–100 nM, WST-1
[8] = tested on: eIF4A-dependent firefly luciferase translation in S2 cells; assay type: cell-based, D. melanogaster; conditions: t = 24 h
[9] = tested on: S2 cells; test: cells; conditions: Drosophila melanogaster, read-out: IC50 (best-fit value, 4PL dose-viability curve)
[10] = tested on: RVFV MP-12; assay type: cell-based, Rift Valley fever virus; conditions: A549 cells pretreated with 50 nM silvestrol, MOI 0.1, 18 h post-infection, relative to DMSO controls
[11] = tested on: RVFV Clone 13; assay type: cell-based, Rift Valley fever virus; conditions: A549 cells pretreated with 50 nM silvestrol, MOI 0.1, 18 h post-infection, relative to DMSO controls
[12] = in vitro; conditions: Aedes aegypti, CC50, Aag2 cells, WST-1
[13] = tested on: eIF4A-dependent firefly luciferase translation in Aag2 cells; assay type: cell-based, Ae. aegypti; conditions: t = 48 h
[14] = silvestrol in the sub-CC50 range, vs DMSO and (AC)15 control

T1 sequence (Q02748 whole entry): as the sequence (Q02748 whole entry Y160L) above, with L160Y counted along it

Compound | ∆Tm ([1]; RNA oligo (AC)5) | ∆Tm ([1]; RNA oligo (AG)5) | ∆Tm ([1]; RNA oligo (GA)5) | ∆Tm ([1]; RNA oligo (UA)5) | ∆Tm ([1]; RNA oligo (UC)5) | ∆Tm ([1]; RNA oligo (UG)5) | reduction in thermal shift with the mutant compared to the wt protein [2] | ∆Tm ([2]; RNA oligo (AC)5) | ∆Tm ([2]; RNA oligo (AG)5) | ∆Tm ([2]; RNA oligo (GA)5) | ∆Tm ([2]; RNA oligo (UA)5) | ∆Tm ([2]; RNA oligo (UC)5) | ∆Tm ([2]; RNA oligo (UG)5) | ∆Tm ([3]; RNA oligo (AC)5) | ∆Tm ([3]; RNA oligo (GA)5) | ∆Tm ([3]; RNA oligo (UA)5) | ∆Tm ([3]; RNA oligo (UC)5) | ∆Tm ([3]; RNA oligo (UG)5) | ∆Tm ([4]; RNA oligo (AC)5) | ∆Tm ([4]; RNA oligo (AG)5) | further results
CONC(=O)C1C(O)C2(O)c3c(OC)cc(OC)cc3OC2(c2ccc(OC)cc2)C1c1ccccc1 (stereo not drawn) [CR-31-B (-)] | -0.43 °C | 6.55 °C | 5.81 °C | -0.71 °C | -1.11 °C | 5.59 °C | ~3 °C | -4.82 °C | 7.50 °C | 3.74 °C | -4.65 °C | -5.44 °C | -0.09 °C | -4.03 °C | 2.81 °C | -4.53 °C | -4.59 °C | -2.82 °C | -4.66 °C | 0.74 °C | ∆Tm ([4]; RNA oligo (GA)5): 1.88 °C; ∆Tm ([4]; RNA oligo (UA)5): -4.43 °C; ∆Tm ([4]; RNA oligo (UC)5): -4.09 °C; ∆Tm ([4]; RNA oligo (UG)5): -2.27 °C
COC(=O)[C@H]1[C@@H](O)[C@@]2(O)c3c(OC)cc(O[C@@H]4O[C@@H]([C@H](O)CO)CO[C@H]4OC)cc3O[C@@]2(c2ccc(OC)cc2)[C@@H]1c1ccccc1 [silvestrol] | 1.02 °C | 9.55 °C | 9.16 °C | -0.09 °C | -0.09 °C | 7.31 °C | about 5 °C | -5.7 °C | 7.84 °C | 3.91 °C | -5.16 °C | -5.73 °C | -0.68 °C | -4.10 °C | 3.53 °C | -4.50 °C | -4.15 °C | -3.02 °C | -1.65 °C | 1.76 °C | IC50 ([5]; 24 h): 36.7 nM; IC50 ([5]; 48 h): 45.3 nM; CC50 ([6]; 24 h incubation): 11.5 nM; CC50 ([6]; 48 h incubation): 7.3 nM; cytotoxicity [7]: No cytotoxicity; translation efficiency with the (AC)15 control ([8]; silvestrol concentrations in the CC50 range): reduction of translation efficiency; firefly luciferase activity / translation efficiency with the (AG)15 plasmid [8, 14]: strong reduction; IC50 ([9]; 24 h): 6.35 nM; IC50 ([9]; 48 h): 6.15 nM; RVFV L-segment RNA levels [10]: strong reduction; RVFV L-segment RNA levels [11]: strong reduction; CC50 ([12]; 24 h incubation): 55.6 nM; CC50 ([12]; 48 h incubation): 49 nM; ∆Tm ([4]; RNA oligo (GA)5): 2.90 °C; ∆Tm ([4]; RNA oligo (UC)5): -3.87 °C; ∆Tm ([4]; RNA oligo (UG)5): -2.05 °C; translation efficiency with the (AC)15 control [13]: already visible at the half CC50 concentration; firefly luciferase activity / translation efficiency with the (AG)15 plasmid [13, 14]: strong reduction
